Source: ChEMBL document CHEMBL5325415, “Falcipains: Biochemistry, target validation and structure-activity relationship studies of inhibitors as antimalarials” (Eur J Med Chem, 2023)

How the values were obtained:
Falcipain 2 [1] = target: T1, Falcipain 2 (Plasmodium falciparum, UniProt Q9N6S8); experiment: Inhibition of Plasmodium falciparum FP-2 using Z-Leu-Arg-AMC as substrate pretreated with enzyme for 30 mins followed by substrate addition and measured for 30 mins by spectrofluorometry
T1 sequence (Q9N6S8 whole entry): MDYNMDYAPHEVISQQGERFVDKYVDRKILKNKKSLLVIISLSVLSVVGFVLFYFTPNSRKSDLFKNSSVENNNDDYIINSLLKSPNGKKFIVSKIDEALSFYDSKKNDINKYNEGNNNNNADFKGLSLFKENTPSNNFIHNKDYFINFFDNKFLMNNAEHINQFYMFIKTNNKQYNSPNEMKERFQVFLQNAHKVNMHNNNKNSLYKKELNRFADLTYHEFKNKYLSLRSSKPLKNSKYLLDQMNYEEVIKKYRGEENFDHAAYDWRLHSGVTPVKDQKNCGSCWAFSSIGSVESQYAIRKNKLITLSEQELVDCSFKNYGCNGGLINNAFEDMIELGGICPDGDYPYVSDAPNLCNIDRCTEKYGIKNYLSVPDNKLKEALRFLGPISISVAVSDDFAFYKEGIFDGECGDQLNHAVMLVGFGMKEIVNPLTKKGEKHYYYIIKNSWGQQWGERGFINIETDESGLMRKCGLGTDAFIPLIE

[2] = target: T2, Falcipain 2 (Plasmodium falciparum) (UniProt Q9N6S8); experiment: Inhibition of Plasmodium falciparum FP-2 using Z-Leu-Arg-AMC as substrate at 10 uM pretreated with enzyme for 30 mins followed by substrate addition and measured for 30 mins by spectrofluorometry; details: time 60.0 min
T2 sequence (whole entry): T1 sequence (Q9N6S8 whole entry)

Plasmodium falciparum = experiment: Antiplasmodial activity against Plasmodium falciparum 3D7 infected in human erythrocytes assessed as growth inhibition measured after 52 hrs by SYBR green dye based assay; type: functional, organism-based; details: 3D7, Erythrocyte
Falcipain 2 [3] = target: T1, Falcipain 2; experiment: Inhibition of Plasmodium falciparum FP2 using ZFR-AMC as substrate preincubated with enzyme for 10 mins followed by substrate addition and measured for 30 mins by fluorimetric analysis

| SMILES | IC50 (Falcipain 2 [1]) [µM] | inhibition [2] [%] | EC50 (Plasmodium falciparum) [µM] | IC50 (Falcipain 2 [3]) [µM] |
| --- | --- | --- | --- | --- |
| C=CCn1c(SCC(=O)Nc2sc3c(c2C(N)=O)CCC3)nc2scc(-c3cccc([N+](=O)[O-])c3)c2c1=O | 11.8 | 53 | – | – |
| COc1ccc(-n2cc(COc3ccnc4cc(Cl)ccc34)nn2)cc1 | – | – | 51.7 | 25.4 |
| NC(=O)c1c(NC(=O)CSc2nc3scc(-c4ccccc4)c3c(=O)n2C2CCCCC2)sc2c1CCC2 | 1.46 | 92.7 | – | – |
| Cc1ccc(NC(=S)N/N=C/c2ccc(O[C@H]3O[C@@H]4O[C@@]5(C)CC[C@H]6[C@H](C)CC[C@@H]([C@H]3C)[C@@]46OO5)cc2)c(C)c1 | 1.35 | – | – | – |
| CC(=O)Nc1ccc(S(=O)(=O)N2CCN(C(=O)c3cc(-c4ccc(OC(F)(F)F)cc4)nc4ccccc34)CC2)cc1 | – | – | 1.43 | 2.64 |
| C[C@H]1[C@@H](Oc2ccc(/C=N/NC(=S)Nc3ccccc3F)cc2)O[C@@H]2O[C@@]3(C)CC[C@H]4[C@H](C)CC[C@@H]1[C@@]24OO3 | 2.51 | – | – | – |
| Fc1ccc(-n2cc(COc3ccnc4cc(Cl)ccc34)nn2)c(F)c1 | – | – | 159 | 25.4 |
| C=CCn1c(SCC(=O)Nc2sc3c(c2C(N)=O)CCC3)nc2scc(-c3ccc(Cl)cc3)c2c1=O | 2.95 | 85.7 | – | – |
| Fc1ccccc1-n1cc(COc2ccnc3cc(Cl)ccc23)nn1 | – | – | 66.6 | 107 |
| O=C(c1cc(Cl)nc2ccccc12)N1CCN(c2ccnc3cc(Cl)ccc23)CC1 | – | – | 1.05 | 4.78 |
| CCOc1cccc(NC(=S)N/N=C/c2ccc(O[C@H]3O[C@@H]4O[C@@]5(C)CC[C@H]6[C@H](C)CC[C@@H]([C@H]3C)[C@@]46OO5)cc2)c1 | 0.52 | – | – | – |
| COc1ccc(-c2cc(C(=O)N3CCN(S(=O)(=O)c4ccc(NC(C)=O)cc4)CC3)c3ccccc3n2)cc1 | – | – | 0.81 | 2.14 |
| O=C(Cc1ccccc1)N[C@H](Cc1c[nH]c2ccccc12)C(=O)NCc1ccccc1 | 39.4 | 25.7 | – | – |
| C=CCn1c(SCC(=O)Nc2sc3c(c2C(N)=O)CCC3)nc2scc(-c3ccccc3)c2c1=O | 2.81 | 88.7 | – | – |
| O=[N+]([O-])c1ccc(-n2cc(COc3ccnc4cc(Cl)ccc34)nn2)cc1 | – | – | 49.9 | 16.2 |
| O=C(c1cc(-c2ccccc2)nc2ccccc12)N1CCN(c2cc(=O)[nH]c3ccccc23)CC1 | – | – | 20.2 | 13 |
| Fc1ccc(-n2cc(COc3ccnc4cc(Cl)ccc34)nn2)cc1F | – | – | 21.9 | 25.6 |
| CC(=O)Nc1ccc(S(=O)(=O)N2CCN(C(=O)c3cc(Cl)nc4ccccc34)CC2)cc1 | – | – | 1.95 | 7.37 |
| Cc1ccc(-n2cc(COc3ccnc4cc(Cl)ccc34)nn2)cc1 | – | – | 49.5 | 26.6 |
| C=CCn1c(SCC(=O)Nc2sc3c(c2C(N)=O)CCC3)nc2sc3c(c2c1=O)CCCC3 | 5.77 | 82.2 | – | – |
| Fc1ccc(-n2cc(COc3ccnc4cc(Cl)ccc34)nn2)cc1Cl | – | – | 406 | 45.1 |
| C[C@H]1[C@H](OC(=O)c2ccc(/C=N/NC(=O)Nc3ccc(F)cc3)cc2)O[C@@H]2O[C@@]3(C)CC[C@H]4[C@H](C)CC[C@@H]1[C@@]24OO3 | 0.65 | – | – | – |
| O=C(c1cc(-c2ccccc2)nc2ccccc12)N1CCN(S(=O)(=O)c2ccc(Cl)cc2Cl)CC1 | – | – | 20 | 4.2 |
| Cc1cc(C)cc(NC(=O)N/N=C/c2ccc(C(=O)O[C@@H]3O[C@@H]4O[C@@]5(C)CC[C@H]6[C@H](C)CC[C@@H]([C@H]3C)[C@@]46OO5)cc2)c1 | 0.57 | – | – | – |
| C[C@H]1[C@H](OC(=O)c2ccc(/C=N/NC(=O)Nc3ccccc3F)cc2)O[C@@H]2O[C@@]3(C)CC[C@H]4[C@H](C)CC[C@@H]1[C@@]24OO3 | 0.47 | – | – | – |
| Cc1ccc(NC(=O)N/N=C/c2ccc(O[C@H]3O[C@@H]4O[C@@]5(C)CC[C@H]6[C@H](C)CC[C@@H]([C@H]3C)[C@@]46OO5)cc2)c(C)c1 | 1.03 | – | – | – |
| CCOc1ccc(NC(=O)N/N=C/c2ccc(C(=O)O[C@@H]3O[C@@H]4O[C@@]5(C)CC[C@H]6[C@H](C)CC[C@@H]([C@H]3C)[C@@]46OO5)cc2)cc1 | 0.29 | – | – | – |
